Experimental data published in patent US20240174662A1, “SMALL MOLECULE INHIBITORS OF SALT INDUCIBLE KINASES” (Janssen Biotech, Inc., priority 2021, published 2024).

Target: SIK2 (Homo sapiens (Human), UniProt Q9H0K1)
Assay: SIK2 Enzymatic Assay Version 2 (High ATP)
Type: biochemical
Conditions: 3 mM ATP and 200 μM HDAC5tide final, ADP-Glo Max luminescence
Procedure, shortened: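 Run at room temperature; SIK2 enzyme at 6 nM (2× final) preincubated with compound 30 min before reaction. ADP formation detected by ADP-Glo Max (2 h reagent, 1 h detection) with luminescence read-out.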

Chain of SIK2 (Q9H0K1 whole entry, species assumed): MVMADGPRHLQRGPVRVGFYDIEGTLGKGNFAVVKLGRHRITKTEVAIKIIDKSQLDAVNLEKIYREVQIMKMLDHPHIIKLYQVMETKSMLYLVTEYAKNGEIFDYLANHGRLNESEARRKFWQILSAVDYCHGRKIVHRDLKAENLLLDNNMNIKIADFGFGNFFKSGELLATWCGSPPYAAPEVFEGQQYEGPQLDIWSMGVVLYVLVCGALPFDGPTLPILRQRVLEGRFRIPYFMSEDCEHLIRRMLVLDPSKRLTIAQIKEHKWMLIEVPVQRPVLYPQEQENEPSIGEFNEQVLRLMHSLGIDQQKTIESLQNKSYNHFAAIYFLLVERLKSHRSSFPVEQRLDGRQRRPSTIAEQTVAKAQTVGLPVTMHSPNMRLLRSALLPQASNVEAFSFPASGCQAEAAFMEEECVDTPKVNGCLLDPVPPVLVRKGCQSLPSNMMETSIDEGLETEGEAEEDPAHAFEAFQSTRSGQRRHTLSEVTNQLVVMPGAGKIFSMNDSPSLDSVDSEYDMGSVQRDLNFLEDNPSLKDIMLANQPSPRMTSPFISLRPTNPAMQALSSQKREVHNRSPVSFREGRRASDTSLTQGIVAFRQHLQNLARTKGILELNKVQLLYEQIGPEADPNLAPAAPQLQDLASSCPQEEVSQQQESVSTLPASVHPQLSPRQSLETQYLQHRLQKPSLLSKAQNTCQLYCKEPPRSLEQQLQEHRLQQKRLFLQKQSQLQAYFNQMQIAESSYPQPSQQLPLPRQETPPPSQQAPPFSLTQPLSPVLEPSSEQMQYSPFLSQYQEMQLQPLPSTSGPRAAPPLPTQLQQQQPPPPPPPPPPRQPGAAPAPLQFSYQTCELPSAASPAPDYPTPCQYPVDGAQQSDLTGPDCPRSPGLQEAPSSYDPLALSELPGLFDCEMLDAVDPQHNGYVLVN

Going from `Cc1cc(Nc2cc3cc(-c4c(O[C@@H]5CNC[C@@H]5F)cnn4C(F)F)ccn3n2)nc(C)n1` [Example 32, 5-[2-(difluoromethyl)-4-[(3R,4S)-4-fluoropyrrolidin-3-yl]oxy-pyrazol-3-yl]-N-(2,6-dimethylpyrimidin-4-yl)pyrazolo[1,5-a]pyridin-2-amine] to `Cc1cc(Nc2cc3cc(-c4c(OC[C@H]5CCN5)cnn4C)ccn3n2)nc(C)n1` [Example 42, 5-[4-[[(2R)-azetidin-2-yl]methoxy]-2-methyl-pyrazol-3-yl]-N-(2,6-dimethylpyrimidin-4-yl)pyrazolo[1,5-a]pyridin-2-amine], the IC50 rises from 6.6 nM to 14.6 nM (2.2-fold).

Going from `Cc1cc(Nc2cc3cc(-c4c(OC[C@H]5CCN5C)cnn4C(F)F)ccn3n2)nn(C)c1=O` [Example 33, 6-[[5-[2-(difluoromethyl)-4-[[(2R)-1-methylazetidin-2-yl]methoxy]pyrazol-3-yl]pyrazolo[1,5-a]pyridin-2-yl]amino]-2,4-dimethyl-pyridazin-3-one] to `Cc1cncc(Nc2cc3cc(-c4c(OC[C@H]5CCN5C)cnn4C)ccn3n2)n1` [Example 46, 5-[2-methyl-4-[[(2R)-1-methylazetidin-2-yl]methoxy]pyrazol-3-yl]-N-(6-methylpyrazin-2-yl)pyrazolo[1,5-a]pyridin-2-amine], the IC50 rises from 1.3 nM to 2.5 nM (1.9-fold). The first is the more potent here.

First: CN1CC[C@@H]1COc1cnn(C)c1-c1ccn2nc(Nc3ccc(C(=O)NCC(C)(C)C#N)cn3)cc2c1 [Example 36, N-(2-cyano-2-methyl-propyl)-6-[[5-[2-methyl-4-[[(2R)-1-methylazetidin-2-yl]methoxy]pyrazol-3-yl]pyrazolo[1,5-a]pyridin-2-yl]amino]pyridine-3-carboxamide]
Second: Cc1ccc(Nc2cc3cc(-c4c(OC[C@H]5CCN5C)cnn4C)ccn3n2)nn1 [Example 39, 5-[2-methyl-4-[[(2R)-1-methylazetidin-2-yl]methoxy]pyrazol-3-yl]-N-(6-methylpyridazin-3-yl)pyrazolo[1,5-a]pyridin-2-amine]
The IC50 of the first is 3-fold higher: 10.3 nM for the first, 3.4 nM for the second. The second is the more potent here.

Compared with `COc1cc(Nc2cc3cc(-c4c(OC[C@H]5CCN5C)cnn4C)ccn3n2)cc(OC)c1C(=O)NC(C)C` [Example 37, N-isopropyl-2,6-dimethoxy-4-[[5-[2-methyl-4-[[(2R)-1-methylazetidin-2-yl]methoxy]pyrazol-3-yl]pyrazolo[1,5-a]pyridin-2-yl]amino]benzamide], `Cc1cc(C)c(Nc2cc3cc(-c4c(OC[C@H]5CCN5C)cnn4C)ccn3n2)nn1` [Example 61, N-(4,6-dimethylpyridazin-3-yl)-5-[2-methyl-4-[[(2R)-1-methylazetidin-2-yl]methoxy]pyrazol-3-yl]pyrazolo[1,5-a]pyridin-2-amine] is 27-fold higher in IC50: 42.9 nM for the first, 1140 nM for the second.

First: Cn1ncc(O[C@@H]2C[C@H]3COC[C@@H](C2)N3)c1-c1ccn2nc(NC(=O)C3CC3)cc2c1 [Example 43, exo-N-[5-[2-methyl-4-[[(1R,5S)-3-oxa-9-azabicyclo[3.3.1]nonan-7-yl]oxy]pyrazol-3-yl]pyrazolo[1,5-a]pyridin-2-yl]cyclopropanecarboxamide]
Second: CCN1CC[C@H]1COc1cnn(C)c1-c1ccn2nc(NC(=O)C3CC3)cc2c1 [Example 47, N-[5-[4-[[(2S)-1-ethylazetidin-2-yl]methoxy]-2-methyl-pyrazol-3-yl]pyrazolo[1,5-a]pyridin-2-yl]cyclopropanecarboxamide]
The IC50 of the first is 5.1-fold lower: 17.3 nM for the first, 87.7 nM for the second. The first is the more potent here.

First: Cn1ncc(OCC2(c3ccccc3)CNC2)c1-c1ccn2nc(NC(=O)C3CC3)cc2c1 [Example 44, N-[5-[2-methyl-4-[(3-phenylazetidin-3-yl)methoxy]pyrazol-3-yl]pyrazolo[1,5-a]pyridin-2-yl]cyclopropanecarboxamide]
Second: CCN1CC[C@@H]1COc1cnn(C)c1-c1ccn2nc(NC(=O)C3CC3)cc2c1 [Example 52, N-[5-[4-[[(2R)-1-ethylazetidin-2-yl]methoxy]-2-methyl-pyrazol-3-yl]pyrazolo[1,5-a]pyridin-2-yl]cyclopropanecarboxamide]
The IC50 of the first is 4.9-fold higher: 17.6 nM for the first, 3.6 nM for the second.

Going from `Cc1cncc(Nc2cc3cc(-c4c(OC[C@H]5CCN5)cnn4C)ccn3n2)n1` [Example 45, 5-[4-[[(2R)-azetidin-2-yl]methoxy]-2-methyl-pyrazol-3-yl]-N-(6-methylpyrazin-2-yl)pyrazolo[1,5-a]pyridin-2-amine] to `Cc1cnc(Nc2cc3cc(-c4c(OC[C@H]5CCN5C)cnn4C)ccn3n2)cn1` [Example 49, 5-[2-methyl-4-[[(2R)-1-methylazetidin-2-yl]methoxy]pyrazol-3-yl]-N-(5-methylpyrazin-2-yl)pyrazolo[1,5-a]pyridin-2-amine], the IC50 falls from 24.1 nM to 5.3 nM (4.5-fold). The second is the more potent here.

First: CC(C)N1CC[C@H]1COc1cnn(C)c1-c1ccn2nc(NC(=O)C3CC3)cc2c1 [Example 48, N-[5-[4-[[(2S)-1-isopropylazetidin-2-yl]methoxy]-2-methyl-pyrazol-3-yl]pyrazolo[1,5-a]pyridin-2-yl]cyclopropanecarboxamide]
Second: CC(C)N1CC[C@@H]1COc1cnn(C)c1-c1ccn2nc(NC(=O)C3CC3)cc2c1 [Example 53, N-[5-[4-[[(2R)-1-isopropylazetidin-2-yl]methoxy]-2-methyl-pyrazol-3-yl]pyrazolo[1,5-a]pyridin-2-yl]cyclopropanecarboxamide]
The IC50 of the first is 3.9-fold higher: 269 nM for the first, 68.3 nM for the second. The second is the more potent here.

`CN1CC[C@@H]1COc1cnn(C)c1-c1ccn2nc(Nc3ccc(C4CC4)nn3)cc2c1` [Example 50, N-(6-cyclopropylpyridazin-3-yl)-5-[2-methyl-4-[[(2R)-1-methylazetidin-2-yl]methoxy]pyrazol-3-yl]pyrazolo[1,5-a]pyridin-2-amine] and `Cc1nccc(Nc2cc3cc(-c4c(OC[C@H]5CCN5C)cnn4C)ccn3n2)n1` [Example 64, 5-[2-methyl-4-[[(2R)-1-methylazetidin-2-yl]methoxy]pyrazol-3-yl]-N-(2-methylpyrimidin-4-yl)pyrazolo[1,5-a]pyridin-2-amine] are within 1.5-fold of each other in IC50: 2.6 nM for the first, 2 nM for the second.

`Cc1cc(Nc2cc3cc(-c4c(OC[C@H]5CCN5C)cnn4C)ccn3n2)ncn1` [Example 55, 5-[2-methyl-4-[[(2R)-1-methylazetidin-2-yl]methoxy]pyrazol-3-yl]-N-(6-methylpyrimidin-4-yl)pyrazolo[1,5-a]pyridin-2-amine] and `Cc1cc(Nc2cc3cc(-c4c(OC[C@H]5CCN5C)cnn4C)ccn3n2)nc(C(F)(F)F)n1` [Example 63, 5-[2-methyl-4-[[(2R)-1-methylazetidin-2-yl]methoxy]pyrazol-3-yl]-N-[6-methyl-2-(trifluoromethyl)pyrimidin-4-yl]pyrazolo[1,5-a]pyridin-2-amine] are within 1.5-fold of each other in IC50: 1.3 nM for the first, 1.1 nM for the second.

First: CC(=O)N1CC[C@@H]1COc1cnn(C)c1-c1ccn2nc(NC(=O)C3CC3)cc2c1 [Example 56, N-[5-[4-[[(2R)-1-acetylazetidin-2-yl]methoxy]-2-methyl-pyrazol-3-yl]pyrazolo[1,5-a]pyridin-2-yl]cyclopropanecarboxamide]
Second: CN1CC[C@@H]1COc1cnn(C)c1-c1ccn2nc(NC(=O)C3CC3(F)F)cc2c1 (stereo partly drawn) [Example 72, 2,2-difluoro-N-[5-[2-methyl-4-[[(2R)-1-methylazetidin-2-yl]methoxy]pyrazol-3-yl]pyrazolo[1,5-a]pyridin-2-yl]cyclopropanecarboxamide]
The IC50 of the first is 48-fold higher: 2500 nM for the first, 52.1 nM for the second.

Going from `Cc1nc(C)c(C)c(Nc2cc3cc(-c4c(OC[C@H]5CCN5C)cnn4C)ccn3n2)n1` [Example 57, 5-[2-methyl-4-[[(2R)-1-methylazetidin-2-yl]methoxy]pyrazol-3-yl]-N-(2,5,6-trimethylpyrimidin-4-yl)pyrazolo[1,5-a]pyridin-2-amine] to `CCN1CC[C@@H]1COc1cnn(C)c1-c1ccn2nc(Nc3cc(C)nc(C)n3)cc2c1` [Example 62, N-(2,6-dimethylpyrimidin-4-yl)-5-[4-[[(2R)-1-ethylazetidin-2-yl]methoxy]-2-methyl-pyrazol-3-yl]pyrazolo[1,5-a]pyridin-2-amine], the IC50 falls from 471 nM to 0.9 nM (520-fold).

`CCN1CC[C@@H]1COc1cnn(C)c1-c1ccn2nc(Nc3ccnc(C)n3)cc2c1` [Example 65, 5-[4-[[(2R)-1-ethylazetidin-2-yl]methoxy]-2-methyl-pyrazol-3-yl]-N-(2-methylpyrimidin-4-yl)pyrazolo[1,5-a]pyridin-2-amine] and `CCN1CC[C@@H]1COc1cnn(C)c1-c1ccn2nc(Nc3ccc(C)nn3)cc2c1` [Example 68, 5-[4-[[(2R)-1-ethylazetidin-2-yl]methoxy]-2-methyl-pyrazol-3-yl]-N-(6-methylpyridazin-3-yl)pyrazolo[1,5-a]pyridin-2-amine] cannot be ordered by IC50: under 0.847 nM for the first, under 0.847 nM for the second.

Compared with `CCN1CC[C@@H]1COc1cnn(C)c1-c1ccn2nc(NC(=O)[C@@H]3C[C@H]3C)cc2c1` [Example 66, (1R,2R)—N-[5-[4-[[(2R)-1-ethylazetidin-2-yl]methoxy]-2-methyl-pyrazol-3-yl]pyrazolo[1,5-a]pyridin-2-yl]-2-methyl-cyclopropanecarboxamide], `CN1CC[C@@H]1COc1cnn(C)c1-c1ccn2nc(NC(=O)[C@@H]3C[C@@H]3F)cc2c1` [Example 69, (1S,2S)-2-fluoro-N-[5-[2-methyl-4-[[(2R)-1-methylazetidin-2-yl]methoxy]pyrazol-3-yl]pyrazolo[1,5-a]pyridin-2-yl]cyclopropanecarboxamide] is 22-fold higher in IC50: 1.4 nM for the first, 30.3 nM for the second. The first is the more potent here.

First: CCN1CC[C@@H]1COc1cnn(C)c1-c1ccn2nc(Nc3cc(C)nc(C(F)(F)F)n3)cc2c1 [Example 73, 5-[4-[[(2R)-1-ethylazetidin-2-yl]methoxy]-2-methyl-pyrazol-3-yl]-N-[6-methyl-2-(trifluoromethyl)pyrimidin-4-yl]pyrazolo[1,5-a]pyridin-2-amine]
Second: Cc1onc(O[C@@H]2CCNC2)c1-c1ccn2nc(NC(=O)C3CC3)cc2c1 [Example 74, N-[5-[5-methyl-3-[(3R)-pyrrolidin-3-yl]oxy-isoxazol-4-yl]pyrazolo[1,5-a]pyridin-2-yl]cyclopropanecarboxamide]
The IC50 of the first is lower: under 0.847 nM for the first, 144 nM for the second. The first is the more potent here.

`Cc1onc(O[C@H]2CCNC2)c1-c1ccn2nc(NC(=O)C3CC3)cc2c1` [Example 75, N-[5-[5-methyl-3-[(3S)-pyrrolidin-3-yl]oxy-isoxazol-4-yl]pyrazolo[1,5-a]pyridin-2-yl]cyclopropanecarboxamide] gave an IC50 of 35 nM.
